The values that follow come from article PMC7854658, “Structural basis for ligand recognition of the neuropeptide Y Y2 receptor” (Nature Communications, 2021).

The structures appear in SMILES notation. Where “and” joins values, the source holds several entries; their conditions need not be identical. Equal values may be shown once.

For one data set, the target named is T1, wild-type Y2R (Homo sapiens, UniProt P49146).
T1 construct: expressed in transfected cells; host or cells: HEK293
T1 sequence (P49146 1-381): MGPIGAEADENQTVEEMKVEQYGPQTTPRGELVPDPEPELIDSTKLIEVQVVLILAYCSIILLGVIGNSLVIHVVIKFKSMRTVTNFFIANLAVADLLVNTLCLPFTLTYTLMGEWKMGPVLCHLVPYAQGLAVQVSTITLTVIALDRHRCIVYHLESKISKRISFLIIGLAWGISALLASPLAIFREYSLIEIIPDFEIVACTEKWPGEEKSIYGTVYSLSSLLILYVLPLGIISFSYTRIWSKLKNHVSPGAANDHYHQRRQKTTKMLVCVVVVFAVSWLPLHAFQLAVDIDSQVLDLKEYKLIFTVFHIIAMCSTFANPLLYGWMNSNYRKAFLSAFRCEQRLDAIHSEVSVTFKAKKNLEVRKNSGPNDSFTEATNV
In words: NPY-induced IP accumulation (IP-One) with or without 1 μM antagonist. The note with it: WT. Format: cell-based. How it is done:
The plasmid hY2R_eYFP_pVitro2 encoding the WT Y2R and a fluorophore for investigating the receptor localization was used as template for the generation of receptor point mutations as previously described. Mutagenesis PCR was performed using the Phusion High-Fidelity Polymerase (Thermo Fisher Scientific, Waltham, MA, USA). […] The preparations of the plasmid DNA were performed using the Wizard plus Mini or Midi DNA purification kit (Promega, Madison, WI, USA).
To determine the contribution of residues to antagonist binding, IP-One accumulation assays (Cisbio, Codolet, France) were performed. HEK293 cells were seeded into six-well plates and transiently cotransfected with 3200 ng of receptor plasmid DNA and 800 ng of the chimeric G protein (Gα∆6qi4myr) to redirect the Gαi signaling pathway to the Gαq phospholipase C pathway. Transient transfection was carried out using Metafectene as transfection reagent according to the manufacturer’s protocol (Biontex, Munich, Germany) over night. The cells were then reseeded into white 384-well microplates (Greiner Bio-One, Kremsmünster, Austria) at a density of 15,000 cells per well and grown for additional 24 h.
All dilutions were performed in HBSS containing 20 mM LiCl (stimulation buffer) and DMSO with a final concentration of 0.01%.
To determine the amount of cellular IPs, the FRET acceptor (IP1-d2) and the FRET donor (anti-IP1-Cryptate) were reconstituted and diluted in lysis and detection buffer (1:20) as described in the manufacturer’s protocol. Three microliters of both solutions were added, and the cells were incubated on a tumbler for 60 min.

Data set [1] relates to opioid and adrenergic receptors. Also on record: method as in Brothers, S. P. et al., Mol. Pharmacol. 77:46–57, 2010. Conditions: ref Brothers, S. P. et al., Mol. Pharmacol. 77:46–57, 2010; cited from earlier work.
Details of data set [2]: method as in Brothers, S. P. et al., Mol. Pharmacol. 77:46–57, 2010. Conditions: ref Brothers, S. P. et al., Mol. Pharmacol. 77:46–57, 2010; cited from earlier work.
[3] abbreviates: 1 μM antagonist, source data Fig. 3.

Take `N=C(N)NCCC[C@H](NC(=O)CC1(CC(=O)N2CCN(C3c4ccccc4NC(=O)c4ccccc43)CC2)CCCC1)C(=O)NCCn1c(=O)n(-c2ccccc2)n(-c2ccccc2)c1=O` (stereo partly drawn) [BIIE0246]: on wild-type Y2R (setting [3]), the “Average EC50 ratio” value was 157.4; the “EC50 ratio (individual experiments)” value was 143.5 and 171.2. The EC50 ratio at wild-type Y2R (EC50(NPY + 1 μM antagonist)/EC50(NPY)) is 144 and 171 and 159. In addition, on wild-type Y2R (EC50 ratio (WT)/EC50 ratio (mutant)), the “Ratio change (fold)” value was found to be 1 fold. Moreover, in data set [1], the “Affinities at opioid and adrenergic receptors” value was “submicromolar”. Moreover, the Blood-brain-barrier permeability result in data set [2] was “poor”.
